Test results: patent US4416885A, “Use of isopropylaminopyrimidine in the chemotherapy of muscular dystrophy, myopathy and myotonia” (priority 1982, dated 1983)

Columns and labels:
normal chickens 412 = experiment: Experiment 4, flip test (25 flips), normal chickens; format: in vivo, chicken
Description: (§1) All chickens were injected with 50 mg/Kg IAPP and weighed approximately every second or third day.
(§2) B, C, D: Experimental-injected with 50 mg/Kg IAPP

[1] = test system: 413 dystrophic skeletal explants; experiment: Effect on dystrophic skeletal explants in cell culture (microtubules); format: cell-based, chicken; conditions: upon incubation in IAPP, 0.5 mg/ml; skeletal and cardiac explants
Description: In these experiments 2-week and 3-week normal and dystrophic chickens (that had no previous injections with IAPP) were sacrificed and skeletal and cardiac explants were placed in culture with 0.5 mg/ml IAPP added. The pooled results of these experiments are as follows: […]

dystrophic chickens 413 = experiment: Experiment 4, flip test (25 flips), dystrophic chickens; format: in vivo, chicken
Description: as §1, §2

[2] = test system: dystrophic New Hampshire chickens, line 413; experiment: Overall assessment of chemotherapy over all parameters measured; format: in vivo, chicken
Description: The compound IAPP was tested on dystrophic New Hampshire chickens, line 413, and Imperial College (London, England) sub-line of the original Davis, University of California strain. The chickens are homozygous for muscular dystrophy, the disease appearing with 100% incidence.
Chemotherapy was assessed by application of seven different parameters: physical tests of muscular disability, namely the flip test and wing apposition (W.A.) measurements; biochemical assays of serum and muscle enzume levels of creatine phosphokinase (CPK), pyruvate kinase (PK) and acetylcholinesterase (AChE); and histological comparisons of treated and untreated muscle. Toxicity studies (weight loss, etc.) were also used. A very comprehensive profile of the drug was thus obtained which related to all the known, highly characteristic features of the disease which are applicable to both the animal model and the human. […]

[3] = test system: plasma CPK (creatine phosphokinase); experiment: Plasma CPK; format: in vivo, chicken
Description: Chemotherapy was assessed by application of seven different parameters: physical tests of muscular disability, namely the flip test and wing apposition (W.A.) measurements; biochemical assays of serum and muscle enzume levels of creatine phosphokinase (CPK), pyruvate kinase (PK) and acetylcholinesterase (AChE); and histological comparisons of treated and untreated muscle. Toxicity studies (weight loss, etc.) were also used. A very comprehensive profile of the drug was thus obtained which related to all the known, highly characteristic features of the disease which are applicable to both the animal model and the human.
Plasma CPK rises dramatically in the dystrophic chicken as it does also in the human disease. The normal chicken has 200-300 U/l CPK, compared to about 20,000 U/l in the untreated dystrophic chicken at its peak. It rises to these high levels over a period of two months and is, therefore, a significant index of the disease. […]
Finally, oral therapy with IAPP was undertaken at gradually increasing dosages up to 1 g/Kg/day. The parameters (physical, biochemical and histological) measured previously were again used to test the efficacy of the drug; five different dosages were used orally, each being given for 30-60 days, daily (Tables VII-XI). A total of 75 animals were treated in the current study with IAPP and 70 control animals were used.

[4] = 200 mg/Kg i.p. daily for 28 days
[5] = oral 1 g/Kg daily, first four weeks
[6] = 200 mg/Kg i.p. daily for 30 days, day 28 ex ovo
[7] = 200 mg/Kg i.p. daily for 30 days, day 45 ex ovo
[8] = 200 mg/Kg i.p. daily for 30 days, day 56 ex ovo
[9] = 200 mg/Kg i.p. daily for 30 days, day 84 ex ovo
[10] = 300 mg/Kg i.p. daily for 30 days, day 28 ex ovo
[11] = 300 mg/Kg i.p. daily for 30 days, day 45 ex ovo
[12] = 300 mg/Kg i.p. daily for 30 days, day 56 ex ovo
[13] = 300 mg/Kg i.p. daily for 30 days, day 84 ex ovo
[14] = 300 mg/Kg i.p. three times weekly for 30 days, day 28 ex ovo
[15] = 300 mg/Kg i.p. three times weekly for 30 days, day 45 ex ovo
[16] = 300 mg/Kg i.p. three times weekly for 30 days, day 84 ex ovo
[17] = Table VII, oral 200 mg/Kg, 60 days, day 28 ex ovo
[18] = Table VII, oral 200 mg/Kg, 60 days, day 35 ex ovo
[19] = Table VII, oral 200 mg/Kg, 60 days, day 45 ex ovo
[20] = Table VII, oral 200 mg/Kg, 60 days, day 60 ex ovo
[21] = oral 300 mg/Kg daily, day 28 ex ovo
[22] = oral 300 mg/Kg daily, day 35 ex ovo
[23] = oral 450 mg/Kg daily for 45 days, day 28 ex ovo
[24] = oral 450 mg/Kg daily for 45 days, day 35 ex ovo
[25] = oral 450 mg/Kg daily for 45 days, day 50 ex ovo
[26] = oral 600 mg/Kg daily, day 28 ex ovo
[27] = oral 600 mg/Kg daily, day 35 ex ovo
[28] = oral 600 mg/Kg daily, day 50 ex ovo
[29] = oral 1 g/Kg daily, day 28 ex ovo
[30] = oral 1 g/Kg daily, day 35 ex ovo

In the case of `CC(C)Nc1ncccn1.O=P(O)(O)O` [IAPP, 2-isopropylaminopyrimidine orthophosphate], the “Fatigue in flip test” value (normal chickens 412; 412D, day 25, 50 mg/Kg) was “did not fatigue”, the Flip test outcome (normal chickens 412; normal drug injected chickens, 50 mg/Kg) was “able to pass the flip test” and the “Staining of microtubules in dystrophic cells in culture” value [1] was “appears to normalize upon incubation in IAPP”. For the same compound, the “Number of flips at which animal fatigued” value (dystrophic chickens 413; 413D experimental animal, day 25, 50 mg/Kg) was 19 flips, the Flip test outcome (dystrophic chickens 413; dystrophic drug injected chickens, 50 mg/Kg) was “able to pass the flip test” and the Physical performance [2, 4] was “not significantly improved”. The “Reduction in plasma enzyme levels” value [2, 4] was “large reduction in plasma enzume levels”, the “Persistence of enzyme reduction after injections ceased” value ([2]; 200 mg/Kg i.p., CPK, PK, AChE reduced from control values) was 56 days and the Plasma enzyme activities ([2]; 300 mg/Kg i.p. daily) was “greatly reduced”. For the same compound, the “Persistence of reduced plasma enzyme levels after treatment ceased” value ([2]; 300 mg/Kg i.p. three times weekly) was 56 days, the “Reductions in plasma enzyme levels vs daily therapy” value ([2]; 300 mg/Kg three times weekly) was “very comparable reductions in plasma enzyme levels” and the “Difference between treated and dystrophic control animals, parameters measured” value ([2]; Exp. 1, 30 mg/Kg i.p. daily) was “no significant differents”. The “Flip number and wing apposition” value ([2]; Exp. 2, 40 mg/Kg) was “significant improvement”, the “Effect on all parameters measured” value ([2]; Exp. 2, 40 mg/Kg i.p. daily) was “significant effect of IAPP on all parameters measured” and the “CPK, PK and AChE enzyme levels” value ([2]; Exp. 2, 40 mg/Kg, effect declining at end of 10-week experiment) was “reduced dramatically”. For the same compound, the minimal effective dose ([2]; Gallus gallus, ip, read-out: Minimum concentration found effective) was 40 mg/kg, the “Effect on physical performance parameters” value ([2]; oral 200 mg/Kg, 60 days) was “no effect” and the “Enzyme levels and physical performance” value ([2]; oral 600 mg/Kg) was “significant reductions in enzyme levels and improvements in physical performance”. For the same compound, the Physical performance parameters [2, 5] was “greatly improved”, the “Reduction in enzyme levels” value [2, 5] was “highly significant reduction in enzyme levels” and the Effective oral dosage ([2]; oral, daily for 35 days, chicken) was 1 g/kg. For the same compound, the CPK [3, 6] was 478 mU/ml, the “CPK, % change from control” value [3, 6] was -61% and the CPK [3, 7] was 4810 mU/ml. For the same compound, the “CPK, % change from control” value [3, 7] was -40%, the CPK [3, 8] was 5412 mU/ml and the “CPK, % change from control” value [3, 8] was -48%. For the same compound, the CPK [3, 9] was 13,540 mU/ml, the “CPK, % change from control” value [3, 9] was -36% and the CPK [3, 10] was 651 mU/ml. The “CPK, % change from control” value [3, 10] was -46%, the CPK [3, 11] was 4505 mU/ml and the “CPK, % change from control” value [3, 11] was -44%. The CPK [3, 12] was 7629 mU/ml, the “CPK, % change from control” value [3, 12] was -27% and the CPK [3, 13] was 24,248 mU/ml. For the same compound, the “CPK, % change from control” value [3, 13] was “+15%”, the CPK [3, 14] was 651 mU/ml and the “CPK, % change from control” value [3, 14] was -46%. For the same compound, the CPK [3, 15] was 6076 mU/ml, the “CPK, % change from control” value [3, 15] was -24% and the CPK ([3]; 300 mg/Kg i.p. three times weekly for 30 days, day 56 ex ovo) was 7944 mU/ml. The CPK [3, 16] was 16,602 mU/ml, the “CPK, % change from control” value [3, 16] was -21% and the “% CPK Change vs untreated dystrophic controls” value (“% CPK Change” for short) ([3]; Exp. 2, 40 mg/Kg i.p. daily, day 7-13) was -8%. The “% CPK Change” value ([3]; Exp. 2, 40 mg/Kg i.p. daily, day 14-20) was -46%, the “% CPK Change” value ([3]; Exp. 2, 40 mg/Kg i.p. daily, day 21-27) was -21% and the “% CPK Change” value ([3]; Exp. 2, 40 mg/Kg i.p. daily, day 28-34) was -59%. The “% CPK Change” value ([3]; Exp. 2, 40 mg/Kg i.p. daily, day 35-41) was -57%, the “% CPK Change” value ([3]; Exp. 2, 40 mg/Kg i.p. daily, day 42-48) was -72% and the “% CPK Change” value ([3]; Exp. 2, 40 mg/Kg i.p. daily, day 56-62) was -47%. For the same compound, the “% CPK Change” value ([3]; Exp. 2, 40 mg/Kg i.p. daily, day 63-71) was -32%, the “% CPK Change” value ([3]; Exp. 3, 70 mg/Kg i.p. daily, day 21-27) was -51% and the “% CPK Change” value ([3]; Exp. 3, 70 mg/Kg i.p. daily, day 28-34) was -53%. The CPK [3, 17] was 3496 mU/ml, the “CPK, % change from control” value [3, 17] was -31% and the CPK [3, 18] was 7336 mU/ml. The “CPK, % change from control” value [3, 18] was -1%, the CPK [3, 19] was 9638 mU/ml and the “CPK, % change from control” value [3, 19] was -18%. The CPK [3, 20] was 10,860 mU/ml, the “CPK, % change from control” value [3, 20] was -24% and the “Reduction in plasma CPK levels” value ([3]; oral 200 mg/Kg, 60 days) was “moderate reduction”. For the same compound, the CPK [3, 21] was 3794 mU/ml, the “CPK, % change from control” value [3, 21] was -23% and the CPK [3, 22] was 6690 mU/ml. For the same compound, the “CPK, % change from control” value [3, 22] was -30%, the CPK [3, 23] was 4713 mU/ml and the “CPK, % change from control” value [3, 23] was -18%. For the same compound, the CPK [3, 24] was 6483 mU/ml, the “CPK, % change from control” value [3, 24] was -24% and the CPK [3, 25] was 17,975 mU/ml. For the same compound, the “CPK, % change from control” value [3, 25] was “+30%”, the CPK [3, 26] was 2658 mU/ml and the “CPK, % change from control” value [3, 26] was -53%. The CPK [3, 27] was 4712 mU/ml, the “CPK, % change from control” value [3, 27] was -45% and the CPK [3, 28] was 9084 mU/ml. For the same compound, the “CPK, % change from control” value [3, 28] was -34%, the CPK [3, 29] was 2217 mU/ml and the “CPK, % change from control” value [3, 29] was -63%. The CPK [3, 30] was 4018 mU/ml and the “CPK, % change from control” value [3, 30] was -68%.
